For 83 compounds, GHS category results are on record in the CATMoS acute toxicity set (Mansouri et al. 2021).

This data set in a line: GHS categories as the set defines them, by LD50: 1 up to 5, 2 up to 50, 3 up to 300, 4 up to 2000, 5 above 2000 mg/kg. To be noted: rat; in vivo; po. The text has this:
[…]The data set underlying the modeling effort for this project was initially compiled by NICEATM and U.S. EPA’s CCTE. Briefly, LD50 data were collected from rat acute oral systemic toxicity tests, including limit tests, ranges/confidence intervals, and discrete LD50 values. The full data set included 21,200 LD50 entries for 15,688 substances. […] Data were reviewed to ensure that LD50 values with obvious errors in the extracted data such as unit conversion errors (e.g., comma and decimal separator misplacements) were either fixed or removed. After this review, 16,209 LD50 values remained. Many of the chemicals represented had multiple LD50 entries, requiring that a single representative value per Chemical Abstracts Service Registry Number (CASRN) identifier be defined to facilitate modeling efforts. Based on ATWG feedback and to define the representative LD50 as a protective value while accounting for the distribution across multiple LD50s, the median of the lowest quartile was computed using only discrete LD50 values (omitting limit test data and range and confidence interval data). A detailed summary of the data compilation is available online on the NICEATM webpage dedicated to the collaborative modeling project (NTP 2020).
[…][…] For categorical designations, limit test and range/confidence interval LD50 data were integrated wherever possible. As such, the number of chemicals with end point values/calls varies across the modeling end points (Table 3) based on whether chemicals had representative LD50 values and/or other data. If a chemical had both, the representative value was used to determine categorical calls rather than limit test data. Some data were useable only for certain end points and categories depending on the thresholds. For example, ranges that spanned multiple hazard categories were considered only for the binary (very toxic/nontoxic) end points and omitted from rendering a determination for hazard category assignment.
[…]The final data set comprising 11,992 chemicals was split into training and evaluation sets […], respectively. This process was performed semirandomly by ordering chemicals based on the five end points (categorical and continuous LD50 values) and partitioning every fourth record into the evaluation set accordingly. This approach was taken to ensure an equivalent distribution of the LD50 values and the different hazard categories between the training and the evaluation sets without supervised sampling of the chemicals based on structures (Figure 1A). The sources of the chemical structures were also kept equivalent between the two sets, with chemical structures obtained from DSSTox, being the highest quality, representing over 75% of each set (Figure 1B).

In turn, `CCC(=O)C=Cc1ccc(OC)cc1` gave a GHS category of 5.

`CC(Oc1cccc(Cl)c1)C(=O)O` (stereo not drawn) yielded a GHS category of 4.

On to `COCCOCCOC(=O)C(=O)Nc1nc(-c2ccccc2)cs1`, for which the GHS category turned out to be 5.

`CC(C)(C)c1cc(CCC(=O)NCCCCCCNC(=O)CCc2cc(C(C)(C)C)c(O)c(C(C)(C)C)c2)cc(C(C)(C)C)c1O`: the GHS category is reported as 5.

The compound `CC(C)c1ccc(C(C)C)cc1` displayed a GHS category of 5.

`FC(F)(F)C(F)(F)C(F)(F)C(F)(F)C(F)(F)C(F)(F)F` displayed a GHS category of 5.

`O=C(O)c1ccc(B(O)O)cc1`: the GHS category amounted to 5.

Consider `COc1ccc(C2(c3ccc(OC)c(Cl)c3)NC(=O)NC2=O)cc1` (stereo not drawn), for which the GHS category is given as 5.

As for `C=CCCCCCCCCOC(C)=O`, the GHS category is listed as 5.

On to `C#CCON=CC1=CCCN(C)C1`, for which the GHS category is on record as 3.

Compound `Nc1c(OCCOC(=O)Oc2ccccc2)cc(O)c2c1C(=O)c1ccccc1C2=O` displayed a GHS category of 5.

Consider `CCC1(CC)COP(=S)(N(SN(C)C(=O)ON=C(C)SC)C2CCCCC2)OC1`, for which the GHS category is on record as 5.

For the compound `CCOC(=O)CCNc1ccccn1`, the GHS category is given as 5.

`CCn1c2ccccc2c2ccccc21` registered a GHS category of 5.

The compound `CCCOc1nn(-c2cccc(C(F)(F)F)c2)c2ncccc12` showed a GHS category of 4.

`O=C1CC(N2C(=O)c3ccccc3C2=O)CC(=O)N1`: the GHS category is given as 5.

Turning to `Cc1c(Cc2ccc(-c3ccccc3-c3nn[nH]n3)cc2)c(=O)nc2nc[nH]n12`, the GHS category is 4.

`O=C(O)c1cc(O)[nH]c(=O)c1` displayed a GHS category of 5.

On to `O=C1NC(=O)C(c2ccc(O)cc2)(c2ccc(O)c(Cl)c2)N1` (stereo not drawn), for which the GHS category stood at 5.

`O=S(=O)(CCO)CS(=O)(=O)CCO` gave a GHS category of 5.

The compound `CC[C@H]1OC(=O)[C@H](C)[C@@H](O[C@H]2C[C@@](C)(OC)[C@@H](O)[C@H](C)O2)[C@H](C)[C@@H](O[C@@H]2O[C@H](C)C[C@H](N(C)C)[C@H]2O)[C@](C)(O)C[C@@H](C)CN(C)[C@H](C)[C@@H](O)[C@]1(C)O` gave a GHS category of 5.

`CO/N=C(/C1=NOCCO1)c1ccccc1Oc1ncnc(Oc2ccccc2Cl)c1F` registered a GHS category of 5.

`Cc1cccc(OC(=O)c2cc(Cl)ccc2OC(N)=O)c1`: the GHS category was determined as 5.

Regarding `Clc1ccc(Oc2cccc(Cl)c2)cc1`, the GHS category was determined as 5.

`CN1CCN(CC(=O)N2c3ccccc3C(=O)Nc3cccnc32)CC1`: the GHS category is on record as 5.

Take `CCCCCCCOc1ccc(-c2ccc(C#N)cc2)cc1`: the GHS category stood at 5.

`NC(CCOc1ccc(C(=NO)C(=O)NC2CN(C(C(=O)O)c3ccc(O)cc3)C2=O)cc1)C(=O)O` (stereo not drawn) displayed a GHS category of 5.

As for `CCOCC1COC(Cn2cncn2)(c2cc3cc(Cl)cc(Cl)c3o2)O1` (stereo not drawn), the GHS category is listed as 4.

Regarding `CC(C)=CCCC(C)(C)O`, the GHS category is given as 5.

`CC(=O)Nc1ccc(/N=N/c2c(S(=O)(=O)O)cc3cc(NC(=O)Nc4ccc5c(O)c(/N=N/c6ccccc6)c(S(=O)(=O)O)cc5c4)ccc3c2O)cc1` registered a GHS category of 5.

Consider `CCCCCCOc1ccccc1C(N)=O`, for which the GHS category was found to be 5.

For the compound `CCOC(=O)c1nn(-c2ccc(OC)cc2)c2c1CCN(c1ccc(N3CCCCC3=O)cc1)C2=O`, the GHS category is listed as 5.

Compound `CS(=O)(=O)OC[C@@H](OS(C)(=O)=O)[C@@H](O)[C@H](O)[C@@H](COS(C)(=O)=O)OS(C)(=O)=O` showed a GHS category of 5.

On to `CCC(C)(Oc1ccc(Cl)cc1)C(=O)OC1CC(C)CC(C)(C)C1` (stereo not drawn), for which the GHS category worked out at 5.

The compound `COP(=O)(NC(=O)C(Cl)Cl)SC` (stereo not drawn) gave a GHS category of 4.

Take `C[C@@H]1CC[C@@]2(OC1)O[C@H]1[C@@H](O)[C@H]3[C@@H]4CC[C@H]5C[C@@H](O[C@@H]6O[C@H](CO)[C@H](O[C@@H]7O[C@H](CO)[C@@H](O)[C@H](O[C@@H]8OC[C@@H](O)[C@H](O)[C@H]8O)[C@H]7O[C@@H]7O[C@H](CO)[C@@H](O)[C@H](O[C@@H]8O[C@H](CO)[C@@H](O)[C@H](O)[C@H]8O)[C@H]7O)[C@H](O)[C@H]6O)[C@H](O)C[C@]5(C)[C@H]4CC[C@]3(C)[C@H]1[C@@H]2C`: the GHS category worked out at 3.

For `Nc1ccc(S(=O)(=O)Nc2ncccn2)cc1`, the GHS category amounted to 5.

`CCCCCCCC/C=C\CCCCCCCC(=O)OC[C@H](O)[C@H]1OC[C@H](OC(=O)CCCCCCC/C=C\CCCCCCCC)[C@H]1OC(=O)CCCCCCC/C=C\CCCCCCCC` came in with a GHS category of 5.

Compound `O=C(O)c1ccccc1Nc1ccc(O)c(C(F)(F)F)c1` displayed a GHS category of 5.

Take `c1coc(CNc2[nH]cnc3ncnc2-3)c1`: the GHS category was determined as 5.

For `C`, the GHS category amounted to 5.

Take `OCC(CO)(CO)COCC(CO)(CO)CO`: the GHS category is listed as 5.

`Nc1cc(Cl)c(Cl)cc1Cl` had a GHS category of 5.

Consider `FC(F)(F)c1cccc(C(F)(F)F)c1`, for which the GHS category is given as 5.

`CN(C)CCn1nnnc1SCC1=C(C(=O)O)N2C(=O)[C@@H](NC(=O)Cc3csc(N)n3)[C@H]2SC1` showed a GHS category of 5.

In the case of `CCCCCCCCCCCCCCCNP1(=S)OCc2cc([N+](=O)[O-])ccc2O1` (stereo not drawn), the GHS category is listed as 3.

The compound `COc1ccc2c(c1)CCN(c1ccccc1)C2c1ccc(Br)cc1` (stereo not drawn) gave a GHS category of 4.

As to `O=C1NC(c2ccccc2)=C2C(=O)NC(c3ccccc3)=C12`, the GHS category amounted to 5.

Consider `CCCCOC(=O)CCP1(=O)Oc2ccccc2-c2ccccc21` (stereo not drawn), for which the GHS category was 5.

With `Cc1cc(CCC(=O)OCCOCCOCCOC(=O)CCc2cc(C)c(O)c(C(C)(C)C)c2)cc(C(C)(C)C)c1O`, the GHS category amounted to 5.

Compound `CCC(=O)C=CC1C(C)=CCCC1(C)C` (stereo not drawn) gave a GHS category of 5.

As to `CC1CN(S(=O)(=O)c2cccc3cnccc23)CCN1` (stereo not drawn), the GHS category amounted to 4.

With `CCC(CC)Nc1nnc(-c2ccccc2)c2ccccc12`, the GHS category turned out to be 5.

Consider `CC(C)CCCCCCCCCCCCCCC(=O)OC(C)C`, for which the GHS category is recorded as 5.

`C[SiH]1O[SiH](C)O[SiH](C)O[SiH](C)O[SiH](C)O1` (stereo not drawn) returned a GHS category of 5.

`COc1cc(C)c(C(=O)c2c(OC)ccc(Br)c2C)c(OC)c1OC` returned a GHS category of 5.

Regarding `O=C=Nc1cccc2ccccc12`, the GHS category was determined as 5.

`COc1ccc(C2c3ccc(OC)cc3CCN2c2ccccc2)cc1` (stereo not drawn) yielded a GHS category of 4.

Regarding `COc1cc(C(=O)OCCOCCN2CCN(C(c3ccccc3)c3ccc(Cl)cc3)CC2)cc(OC)c1OC` (stereo not drawn), the GHS category was 5.

`NCCC(=O)NC(Cc1cnc[nH]1)C(=O)O` (stereo not drawn) returned a GHS category of 5.

In the case of `ClC1=C(Cl)C2(Cl)C3COCC3C1(Cl)C2(Cl)Cl` (stereo not drawn), the GHS category is 5.

Consider `Cc1cc(C(=O)Nc2cccc(C(F)(F)F)c2)n[nH]1`, for which the GHS category stood at 5.

The compound `CCCCC/C=C\C=C\C(=O)OCC` returned a GHS category of 5.

With `CN1C(=O)C(O)N=C(c2ccccc2Cl)c2cc(Cl)ccc21` (stereo not drawn), the GHS category is 5.

Regarding `CC(CCc1ccccc1)NCC(O)c1ccc(O)c(C(N)=O)c1` (stereo not drawn), the GHS category is reported as 5.

As for `CCCCCCCCC(C)C`, the GHS category was found to be 5.

Compound `c1ccc2sc(SN3CCOCC3)nc2c1` had a GHS category of 5.

For the compound `C=CCCCCCCCCCO`, the GHS category came out at 5.

For `CCCC(=O)c1ccc2c(c1)OC(C)(C)C(=O)N2`, the GHS category amounted to 5.

On to `CC(C)[C@@H]1CC[C@@H](C)C[C@H]1OC(=O)Cc1ccccc1`, for which the GHS category was 5.

Turning to `CCC1OC(=O)C(C)C(OC2CC(C)(OC)C(O)C(C)O2)C(C)C(OC2OC(C)CC(N(C)C)C2O)C(C)(O)CC(C)(F)C(=O)C(C)C(O)C1(C)O` (stereo not drawn), the GHS category is on record as 5.

Turning to `O=C(O)Cc1ccc(Cl)cc1Cl`, the GHS category is 5.

The compound `Fc1ccccc1C1c2ccccc2CCN1c1cccc(C(F)(F)F)c1` (stereo not drawn) returned a GHS category of 4.

Compound `CCCCCCCCCCCCCCCCCCCCCCc1ccccc1` gave a GHS category of 5.

Regarding `CCCCCCCCCCCCCCCCCCCN`, the GHS category turned out to be 5.

The compound `CCC(=O)OC(C)(C)C1CC=C(C)CC1` (stereo not drawn) gave a GHS category of 5.

The compound `Cc1cccc(Nc2ccncc2S(=O)(=O)NC(=O)NC(C)C)c1` registered a GHS category of 5.

Consider `CC(C)CCCC(C)C1CCC2C3CCC4CC(OP(=O)(O)O)CCC4(C)C3CCC12C` (stereo not drawn), for which the GHS category worked out at 5.

`COc1ccc2c(c1)CCN(c1ccccc1)C2c1ccccc1Br` (stereo not drawn): the GHS category is 4.

For `CN1CC(CO)CC2c3cccc4c3c(cn4C(C)(C)C)CC21` (stereo not drawn), the GHS category worked out at 4.

Regarding `CC(c1ccccc1)c1ccc(Nc2ccc(C(C)c3ccccc3)cc2)cc1` (stereo not drawn), the GHS category is reported as 5.

For `CC(C)c1[nH]c2ccccc2c1C(=O)c1cccnc1`, the GHS category is 5.

On to `CCCCCCCC/C=C\CCCCCCCC(=O)N(C)CC(=O)O`, for which the GHS category is reported as 5.
